Source: patent US20070142392A1, “Uses of rifamycins” (ActivBiotics, Inc., priority 2005, published 2007)
In brackets after ≈: the same amount, converted by molar mass.

What was measured:
Type in all cases: cell-based
E. coli = test: MIC values, E. coli (Tables 1-4)
H. flu = tested on: H. flu
S. aureus = test: MIC values, S. aureus (Tables 1-4)
E. faecalis = test: MIC values, E. faecalis (Tables 1-4)
S. pneumo. = test: MIC values, S. pneumo. (Tables 1-4)

Compound	MIC E. coli (E. coli) [µg/mL]	MIC H. flu (H. flu) [µg/mL]	MIC S. aureus (S. aureus) [µg/mL]	MIC E. faecalis (E. faecalis) [µg/mL]	MIC S. pneumo. (S. pneumo.) [µg/mL]
COC1C=COC2(C)Oc3c(C)c(O)c4c(=O)c(c5oc6cc(N7CC8CCCN(C(C)=O)C8C7)cc(O)c6nc-5c4c3C2=O)NC(=O)C(C)=CC=CC(C)C(O)C(C)C(O)C(C)C(OC(C)=O)C1C (stereo not shown) [Compound 47]	>8	0.25 (≈ 0.259 µM)	0.008 (≈ 0.00827 µM)	1 (≈ 1.03 µM)	0.002 (≈ 0.00207 µM)
CO[C@H]1/C=C/O[C@@]2(C)Oc3c(C)c(O)c4c(=O)c(c5oc6cc(N7CCC(NC(=O)OC(C)(C)C)CC7)cc(O)c6nc-5c4c3C2=O)NC(=O)/C(C)=C\C=C\[C@H](C)[C@H](O)[C@@H](C)[C@@H](O)[C@@H](C)[C@H](OC(C)=O)[C@@H]1C [Compound 48]	>8	1 (≈ 1 µM)	0.008 (≈ 0.00801 µM)	2 (≈ 2 µM)	0.00025 (≈ 0.00025 µM)
CO[C@H]1/C=C/O[C@@]2(C)Oc3c(C)c(O)c4c(=O)c(c5oc6cc(N7CCC(NC(=O)N8CCC(NC(=O)SC)CC8)CC7)cc(O)c6nc-5c4c3C2=O)NC(=O)/C(C)=C\C=C\[C@H](C)[C@H](O)[C@@H](C)[C@@H](O)[C@@H](C)[C@H](OC(C)=O)[C@@H]1C [Compound 49]	>8	2 (≈ 1.82 µM)	0.06 (≈ 0.0546 µM)	8 (≈ 7.28 µM)	0.0005 (≈ 0.000455 µM)
CO[C@H]1/C=C/O[C@@]2(C)Oc3c(C)c(O)c4c(=O)c(c5oc6cc(N7CCC(NC(=O)N8CCN(C)CC8)CC7)cc(O)c6nc-5c4c3C2=O)NC(=O)/C(C)=C\C=C\[C@H](C)[C@H](O)[C@@H](C)[C@@H](O)[C@@H](C)[C@H](OC(C)=O)[C@@H]1C [Compound 50]	>8	0.5 (≈ 0.488 µM)	0.03 (≈ 0.0293 µM)	4 (≈ 3.9 µM)	0.00012 (≈ 0.000117 µM)
CCOC(=O)NCC1CCN(c2cc(O)c3nc4c5c6c7c(C)c(O)c5c(=O)c(c-4oc3c2)NC(=O)/C(C)=C\C=C\[C@H](C)[C@H](O)[C@@H](C)[C@@H](O)[C@@H](C)[C@H](OC(C)=O)[C@H](C)[C@@H](OC)/C=C/O[C@@](C)(O7)C6=O)CC1 [Compound 51]	8 (≈ 8.12 µM)	0.25 (≈ 0.254 µM)	0.06 (≈ 0.0609 µM)	8 (≈ 8.12 µM)	0.002 (≈ 0.00203 µM)
CO[C@H]1/C=C/O[C@@]2(C)Oc3c(C)c(O)c4c(=O)c(c5oc6cc(N7CCC(NC(=O)OC(C)(C)C)CC7)cc(O)c6nc-5c4c3C2=O)NC(=O)/C(C)=C\C=C\[C@H](C)[C@H](O)[C@@H](C)[C@@H](O)[C@@H](C)[C@H](O)[C@@H]1C [Compound 52]	>8	0.12 (≈ 0.125 µM)	0.015 (≈ 0.0157 µM)	4 (≈ 4.18 µM)	0.00025 (≈ 0.000261 µM)
COC1C=COC2(C)Oc3c(C)c(O)c4c(=O)c(c5oc6cc(N7CC8C(C7)C8N(C)C)cc(O)c6nc-5c4c3C2=O)NC(=O)C(C)=CC=CC(C)C(O)C(C)C(O)C(C)C(OC(C)=O)C1C (stereo not shown) [Compound 53]	>8	2 (≈ 2.16 µM)	0.06 (≈ 0.0649 µM)	4 (≈ 4.32 µM)	0.008 (≈ 0.00865 µM)
COC1C=COC2(C)Oc3c(C)c(O)c4c(=O)c(c5oc6cc(N7CC8C(C7)C8N(C)C)cc(O)c6nc-5c4c3C2=O)NC(=O)C(C)=CC=CC(C)C(O)C(C)C(O)C(C)C(O)C1C (stereo not shown) [Compound 54]	>8	0.25 (≈ 0.283 µM)	0.008 (≈ 0.00906 µM)	2 (≈ 2.26 µM)	0.0005 (≈ 0.000566 µM)
CO[C@H]1/C=C/O[C@@]2(C)Oc3c(C)c(O)c4c(=O)c(c5oc6cc(N7CCC(CNC(C)=O)CC7)cc(O)c6nc-5c4c3C2=O)NC(=O)/C(C)=C\C=C\[C@H](C)[C@H](O)[C@@H](C)[C@@H](O)[C@@H](C)[C@H](OC(C)=O)[C@@H]1C [Compound 55]	8 (≈ 8.38 µM)	0.5 (≈ 0.524 µM)	0.008 (≈ 0.00838 µM)	1 (≈ 1.05 µM)	0.00025 (≈ 0.000262 µM)
CO[C@H]1/C=C/O[C@@]2(C)Oc3c(C)c(O)c4c(=O)c(c5oc6cc(N7CCC(CNC(C)=O)CC7)cc(O)c6nc-5c4c3C2=O)NC(=O)/C(C)=C\C=C\[C@H](C)[C@H](O)[C@@H](C)[C@@H](O)[C@@H](C)[C@H](O)[C@@H]1C [Compound 56]	8 (≈ 8.76 µM)	0.25 (≈ 0.274 µM)	0.004 (≈ 0.00438 µM)	0.12 (≈ 0.131 µM)	0.001 (≈ 0.0011 µM)
CO[C@H]1/C=C/O[C@@]2(C)Oc3c(C)c(O)c4c(=O)c(c5oc6cc(N7CCC(c8ccccc8)CC7)cc(O)c6nc-5c4c3C2=O)NC(=O)/C(C)=C\C=C\[C@H](C)[C@H](O)[C@@H](C)[C@@H](O)[C@@H](C)[C@H](OC(C)=O)[C@@H]1C [Compound 57]	8 (≈ 8.33 µM)	0.5 (≈ 0.521 µM)	0.008 (≈ 0.00833 µM)	2 (≈ 2.08 µM)	0.0005 (≈ 0.000521 µM)
